Columns and labels:
Assay type in all cases: cell-based
[1] = tested on: EFS-CD-CD47 transduced cells; assay: Cytosine deaminase safety switch: killing of transduced iPSCs by 5-fluorocytosine; details: 0.01-1000 μM 5-FC; increasing concentrations; FIG. 16 (middle)
Description: To assess the ability of cytosine deaminase to induce cell death in an […] manner, an EFS-cytosine deaminase (CD)-CD47 bicistronic cassette was transduced into wild type iPSCs by lentiviral viral transduction (see FIG. 16, top). In this cassette, a nucleic acid encoding CD is located upstream of a nucleic acid encoding CD47. A 2A sequence located between the CD and CD47 nucleic acids to ensure the two proteins are separate following translation. An EFS promoter controls expression of CD and CD47.
EFS-CD-CD47 transduced cells and control EFS-CD transduced cells were contacted with 0.01-1000 μM concentrations of 5-fluorocytosine (5-FC) (“5FC”). Cytosine deaminase deaminates 5-FC to toxic 5-fluorouracil (5-FU), thereby killing the cells.

[2] = tested on: human CD47 fused to LID degron domain; assay: LID degron CD47 degradation in EFS-CD47-LID transduced iPSCs, flow cytometry; details: 0-1,000 nM Shield-1 for 24 hours, increasing doses
Description: In the LID system, the protein of interest (POI e.g., CD47) is fused to a LID degron domain (also referred to as “LID domain” or “LID degron”). The LID degron domain includes the FK506- and rapamycin-binding protein (FKBP) and a peptide degron (e.g., TRGVEEVAEGVVLLRRRGN) fused to the C-terminus of the FKBP (FIG. 5). […] The peptide degron is capable of binding to the FKBP active site and is not detected by cellular degradation proteins when sequestered in the active site, thus rendering it a cryptic degron. In the absence of Shield-1, a small molecule, the POI-LID fusion protein is stable. When present, Shield-1 binds tightly to FKBP, thereby displacing the peptide degron and inducing rapid degradation of the LID and any fused partner protein (e.g., CD47). […]
(§1) The EFS-CD47-LID transduced cells, EFS-CD47 transduced cells, and wild-type control cells were incubated in the presence of 0-1,000 nM of Shield-1 for 24 hours and CD47 expression was assessed using flow cytometry.

human CD47 [3] = assay: CD47 expression in control EFS-CD47 transduced and wild-type iPSCs with Shield-1
Description: To assess the ability of the LID system to promote CD47 degradation, expression constructs were made containing the following expression cassettes: a) an EF1a core promoter (EFS) operably linked to a human CD47 gene fused to a nucleic acid encoding the LID degron domain (EFS-CD47-LID, see FIG. 6, top); and b) a control containing the EFS promoter operable linked to the human CD47 gene alone (EFS-CD47). iPSCs were transduced with either the EFS-CD47-LID expression cassette or control EFS-CD47 expression cassette by lentiviral transduction.
as §1

[4] = tested on: human CD47 fused to SMASH tag; assay: SMASH degron CD47 degradation in EFS-SMASH-CD47 transduced iPSCs, flow cytometry; details: 0-10 μM asunaprevir for 48 hours, increasing doses
Description: Small-molecule assisted shutoff, or SMASH, is a system using the hepatitis C virus (HCV) nonstructural protein 3 (NS3) protease and elements in the NS4A protein to effectively shut off expression of a CD47 protein fused to a SMASH-tag with clinically tested HCV protease inhibitors (FIG. 2). In the absence of protease inhibitor (asunaprevir), a cryptic degron sequence is excised, leading to an unmodified gene product. By addition of asunaprevir, the NS3 protease is inhibited, leading to the degradation of newly synthesized CD47 proteins fused to the degron sequence.
CD47 expression analysis: After incubation, cells are washed and stained with an anti-CD47 antibody conjugated to Alexa-647 (Biolegend) to detect surface expression of CD47. More specifically, 1×10^6 cells are harvested and resuspended in 100 μl cell staining-buffer (PBS, 0.1% BSA, 0.1% sodium azide) and incubated with 5 μl Alexa-Fluor 647 labelled anti-CD47 antibody for 30 min on ice. Cells are washed in cell staining buffer and subsequently analyzed by flow cytometry. […]

human CD47 [5] = assay: CD47 expression in control EFS-CD47 transduced and wild-type iPSCs with asunaprevir; details: for expression of CD47: 0-10 μM asunaprevir for 48 hours
Method: CD47 expression analysis: After incubation, cells are washed and stained with an anti-CD47 antibody conjugated to Alexa-647 (Biolegend) to detect surface expression of CD47. More specifically, 1×10^6 cells are harvested and resuspended in 100 μl cell staining-buffer (PBS, 0.1% BSA, 0.1% sodium azide) and incubated with 5 μl Alexa-Fluor 647 labelled anti-CD47 antibody for 30 min on ice. Cells are washed in cell staining buffer and subsequently analyzed by flow cytometry.
To assess the ability of the SMASH system to promote CD47 degradation, expression constructs were made containing the following expression cassettes: a) an EF1 a core promoter (EFS) operably linked to a human CD47 gene fused to a nucleic acid encoding a SMASH tag (EFS-CD47-SMASH, see FIG. 4, top); and b) a control containing the EFS promoter operably linked to the human CD47 gene alone (EFS-CD47). iPSCs were transduced with either the EFS-SMASH-CD47 expression cassette or control EFS-CD47 expression cassette by lentiviral transduction. The EFS-SMASH-CD47 transduced cells, EFS-CD47 transduced cells, and wild-type control cells were incubated in the presence of 0-10 μM of asunaprevir for 48 hours and CD47 expression was assessed using flow cytometry, as explained above.

Structure (SMILES): Nc1nc(=O)[nH]cc1F [5-FC, 5-fluorocytosine]
- killing of CD47 expressing EFS-CD-CD47 transduced cells [1]: observed

Structure (SMILES): CC[C@H](C(=O)N1CCCC[C@H]1C(=O)O[C@H](CCc1ccc(OC)c(OC)c1)c1cccc(OCCN2CCOCC2)c1)c1cc(OC)c(OC)c(OC)c1 [Shield-1]
- reduction in CD47 expression [2]: ≥ 50%
- expression of CD47 (human CD47 [3]; EFS-CD47 ("CD47 only") cells without LID, 0-1,000 nM for 24 hours): generally unaltered
- off-target effects on CD47 expression (human CD47 [3]; EFS-CD47 cells, no significant CD47 knockdown, 0-1,000 nM for 24 hours): no off-target effects
- expression of CD47 (human CD47 [3]; wildtype ("WT") cells, 0-1,000 nM Shield-1 for 24 hours): remained at the baseline

Structure (SMILES): C=C[C@@H]1C[C@]1(NC(=O)[C@@H]1C[C@@H](Oc2ncc(OC)c3ccc(Cl)cc23)CN1C(=O)[C@@H](NC(=O)OC(C)(C)C)C(C)(C)C)C(=O)NS(=O)(=O)C1CC1 [asunaprevir]
- reduction in CD47 expression [4]: ≥ 50%
- expression of CD47 (human CD47 [5]; EFS-CD47 ("CD47 only") cells without SMASH): generally unaltered
- off-target effects on CD47 expression (human CD47 [5]; EFS-CD47 cells, no significant CD47 knockdown, 0-10 μM for 48 hours): no off-target effects
- expression of CD47 (human CD47 [5]; wildtype ("WT") cells): remained at the baseline
